Publication PMC2358973, “A Cysteine Protease Is Critical for Babesia spp. Transmission in Haemaphysalis Ticks” (PLoS Pathogens, 2008)

Molecular target: T1, longipain (Haemaphysalis longicornis, UniProt A1IHG0)
T1 construct: gene HlCath; partial coding region (pPICZC) expressed in Pichia pastoris GS115, HiTrap chelating column purified; precursor 341 residues with 17-residue signal peptide
Assay: inhibition of fluorogenic substrate hydrolysis
Format: biochemical
Conditions: read-out: Inhibition (%) relative to control / Z-F-R-MCA
From the text: inhibition of fluorogenic substrate hydrolysis on longipain

T1 sequence (A1IHG0 22-341 limits assumed): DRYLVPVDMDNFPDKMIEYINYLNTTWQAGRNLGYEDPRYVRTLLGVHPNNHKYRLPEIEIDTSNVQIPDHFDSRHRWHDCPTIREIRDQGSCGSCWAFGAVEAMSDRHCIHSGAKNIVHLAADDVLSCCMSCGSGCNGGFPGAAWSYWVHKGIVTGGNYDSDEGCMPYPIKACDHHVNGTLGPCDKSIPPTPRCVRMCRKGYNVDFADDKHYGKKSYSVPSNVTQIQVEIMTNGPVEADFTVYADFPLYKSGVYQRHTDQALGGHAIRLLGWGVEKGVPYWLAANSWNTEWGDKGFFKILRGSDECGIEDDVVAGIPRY

CC(C)C[C@H](NC(=O)[C@@H]1O[C@H]1C(=O)O)C(=O)NCCCCNC(=N)N [E-64]
inhibition at 10 µM: 84 ± 0.2%
